Results taken from patent publication US20050112573A1, “Method of detecting toxic substance” (priority 2001, published 2005).

Test system: yeast genes (level of expressed mRNA)
Assay: DNA chip analysis of expressed mRNA of yeast genes after 2 h culture with a toxic chemical substance
Type: cell-based, Saccharomyces cerevisiae S288C
Settings: for The level of expressed mRNA in the presence of chemical substance/ (ratio to absence of chemical substance): stress protein genes, DNA chip; for The level of expressed mRNA in the presence of chemical substance/ in its absence, gene YPR184W: yeast gene YPR184W
Protocol: Yeast (Saccharomyces cerevtisiae S288C (α SUC2mal mel gap2 CUP1)) were cultured at 25° C. on YPD medium (yeast extract 1%, polypepton 2%, glucose 2%). One of toxic chemical substances was added to the cell at logarithmic growth phase, and the cell was further cultured for two hours. Cell was cultured without any chemical substance in the same condition, and was used as control. Concentrations of the chemical substances were defined to inhibit the growth of the yeast but not lead to death.
After the completion of cultivation, the culture was centrifuged to collect the cells. To the cells, sodium acetate buffer (50 mM sodium acetate, 10 mM EDTA, 1% SDS) was added, and the mixture was shaken at 65° C. for five minutes, followed by returning to room temperature, and obtaining the supernatant, which procedure was repeated two times. To the supernatant, ½ amount of a solution of phenol/chloroform was added, and the mixture was centrifuged to give a supernatant, which was added with an equal amount of chloroform, and the mixture was centrifuged to give a supernatant. To the supernatant, an equal amount of isopropanol containing 0.3 M sodium acetate was added, and the mixture was allowed to stand at room temperature for 30 minutes, after which the mixture was centrifuged to give a sediment of the whole RNAs. Seventy % ethanol was added to the sediment, and the mixture was again centrifuged to give a sediment, which was then dried and dissolved in water. mRNA was isolated from the whole RNAs as followings. In view of the fact that a poly A chain is attached to the 3′ terminus of mRNA, a polynucleotide having a poly T structure which was immobilized on the surface of latex beads was used to trap the mRNA, and then the mRNA was washed and eluted with spine column (Oligotex-dT30<Super>mRNA Purification Kit, Takara). Reverse transcription of the mRNA was conducted with a reverse transcriptase (Super Script II Reverse Transcriptase; catalogue No. 18064-014, GibcoBRL) using fluorescence-labeled nucleotides to give cDNAs that were introduced with Cy3-dUTP or Cy5-dUTP during the reverse transcription.
The labeled cDNAs were dissolved in TE buffer (10 mM Tris-HCl/1 mM EDTA, pH8.0), and the solution was dropped on the DNA chip containing the whole genes of yeast (DNA Chip Research Inc. Japan) so that the cDNAs were hybridized on the DNA chip at 65° C. for over 12 hours. The fluoresces intensity of the DNA chip was read with a scanner, and the ratio relative to the fluorescence intensity resulting from the absence of chemical substance was estimated as the following, which is shown in Tables 1 to 9: [formula]
In the Tables, “Intensity” indicated in the rightmost column is a value of the level of expressed mRNA of each gene in control cells as divided by the average level of the expressions of the whole genes.

C=CC=O [(14), acrolein]
1.6: The level of expressed mRNA in the presence of chemical substance/ (in its absence), gene YPL148C (yeast gene YPL148C, ratio of DNA chip fluorescence intensity to that without chemical substance)
1.8: The level of expressed mRNA in the presence of chemical substance/The level of expressed mRNA in the absence of chemical substance (yeast gene YOR261C) | The level of expressed mRNA in the presence of chemical substance/The level of expressed mRNA in the absence of chemical substance (yeast gene YPR103W)
1.9: The level of expressed mRNA in the presence of chemical substance/The level of expressed mRNA in the absence of chemical substance (yeast gene YNL333W)
1.4: The level of expressed mRNA in the presence of chemical substance/ (ratio to absence), gene YOL096C (yeast gene YOL096C, mitochondria-located protein genes, 2 h culture with chemical) | The level of expressed mRNA in the presence of chemical substance/ (in its absence), gene YOL096C (yeast gene YOL096C, ratio of DNA chip fluorescence intensity to that without chemical substance) | The level of expressed mRNA in the presence of chemical substance/ (ratio to absence), gene YPL134C (yeast gene YPL134C, mitochondria-located protein genes, 2 h culture with chemical)
1.2: The level of expressed mRNA in the presence of chemical substance/ (in its absence), gene YNL025C (yeast gene YNL025C, ratio of DNA chip fluorescence intensity to that without chemical substance) | The level of expressed mRNA in the presence of chemical substance/The level of expressed mRNA in the absence of chemical substance (yeast gene YOR036W) | The level of expressed mRNA in the presence of chemical substance/ (in its absence), gene YOR103C (yeast gene YOR103C, ratio of DNA chip fluorescence intensity to that without chemical substance) | The level of expressed mRNA in the presence of chemical substance/The level of expressed mRNA in the absence of chemical substance (yeast gene YOR259C) | The level of expressed mRNA in the presence of chemical substance/ (in its absence), gene YOR348C (yeast gene YOR348C, ratio of DNA chip fluorescence intensity to that without chemical substance)
0.4: The level of expressed mRNA in the presence of chemical substance/The level of expressed mRNA in the absence of chemical substance (yeast gene YNL007C) | The level of expressed mRNA in the presence of chemical substance/ (ratio to absence of chemical substance) (yeast gene YOR010C)
1.3: The level of expressed mRNA in the presence of chemical substance/The level of expressed mRNA in the absence of chemical substance (yeast gene YNR010W) | The level of expressed mRNA in the presence of chemical substance/The level of expressed mRNA in the absence of chemical substance (yeast gene YOL164W) | The level of expressed mRNA in the presence of chemical substance/ (ratio to absence of chemical substance) (yeast gene YPL059W) | The level of expressed mRNA in the presence of chemical substance/The level of expressed mRNA in the absence of chemical substance (yeast gene YPL109C) | The level of expressed mRNA in the presence of chemical substance/ (ratio to absence of chemical substance) (yeast gene YPR005C) | The level of expressed mRNA in the presence of chemical substance/ in its absence, gene YPR184W (energy system protein genes, 2 h culture with the chemical, ratio to control without chemical) | The level of expressed mRNA in the presence of chemical substance/ in its absence, gene YPR184W (ratio of DNA chip fluorescence intensity to that without chemical substance)
1.1: The level of expressed mRNA in the presence of chemical substance/The level of expressed mRNA in the absence of chemical substance (yeast gene YNL093W) | The level of expressed mRNA in the presence of chemical substance/The level of expressed mRNA in the absence of chemical substance (yeast gene YOR198C) | The level of expressed mRNA in the presence of chemical substance/ (in its absence), gene YOR251C (yeast gene YOR251C, ratio of DNA chip fluorescence intensity to that without chemical substance) | The level of expressed mRNA in the presence of chemical substance/ (ratio to absence), gene YPL040C (yeast gene YPL040C, mitochondria-located protein genes, 2 h culture with chemical) | The level of expressed mRNA in the presence of chemical substance/ (ratio to absence of chemical substance) (yeast gene YPL140C) | The level of expressed mRNA in the presence of chemical substance/ (ratio to absence of chemical substance) (yeast gene YPL194W)
0.8: The level of expressed mRNA in the presence of chemical substance/The level of expressed mRNA in the absence of chemical substance (yeast gene YNL006W) | The level of expressed mRNA in the presence of chemical substance/ (ratio to absence of chemical substance) (yeast gene YNL064C) | The level of expressed mRNA in the presence of chemical substance/ (ratio to absence of chemical substance) (yeast gene YNR076W) | The level of expressed mRNA in the presence of chemical substance/The level of expressed mRNA in the absence of chemical substance (yeast gene YOR124C) | The level of expressed mRNA in the presence of chemical substance/The level of expressed mRNA in the absence of chemical substance (yeast gene YOR288C) | The level of expressed mRNA in the presence of chemical substance/The level of expressed mRNA in the absence of chemical substance (yeast gene YPL089C) | The level of expressed mRNA in the presence of chemical substance/The level of expressed mRNA in the absence of chemical substance (yeast gene YPL154C)
0.9: The level of expressed mRNA in the presence of chemical substance/The level of expressed mRNA in the absence of chemical substance (yeast gene YOL013C) | The level of expressed mRNA in the presence of chemical substance/ (in its absence), gene YOL108C (yeast gene YOL108C, ratio of DNA chip fluorescence intensity to that without chemical substance) | The level of expressed mRNA in the presence of chemical substance/ (in its absence), gene YOL116W (yeast gene YOL116W, ratio of DNA chip fluorescence intensity to that without chemical substance) | The level of expressed mRNA in the presence of chemical substance/ (ratio to absence of chemical substance) (yeast gene YOL161C) | The level of expressed mRNA in the presence of chemical substance/ (ratio to absence of chemical substance) (yeast gene YOR008C) | The level of expressed mRNA in the presence of chemical substance/The level of expressed mRNA in the absence of chemical substance (yeast gene YOR181W) | The level of expressed mRNA in the presence of chemical substance/ (in its absence), gene YOR363C (yeast gene YOR363C, ratio of DNA chip fluorescence intensity to that without chemical substance)
2.2: The level of expressed mRNA in the presence of chemical substance/The level of expressed mRNA in the absence of chemical substance (yeast gene YOR157C)
1.0: The level of expressed mRNA in the presence of chemical substance/ (in its absence), gene YNR072W (yeast gene YNR072W, ratio of DNA chip fluorescence intensity to that without chemical substance) | The level of expressed mRNA in the presence of chemical substance/The level of expressed mRNA in the absence of chemical substance (yeast gene YOR117W) | The level of expressed mRNA in the presence of chemical substance/ (in its absence), gene YOR180C (yeast gene YOR180C, ratio of DNA chip fluorescence intensity to that without chemical substance) | The level of expressed mRNA in the presence of chemical substance/ (ratio to absence), gene YOR316C (yeast gene YOR316C, mitochondria-located protein genes, 2 h culture with chemical) | The level of expressed mRNA in the presence of chemical substance/The level of expressed mRNA in the absence of chemical substance (yeast gene YPL149W) | The level of expressed mRNA in the presence of chemical substance/The level of expressed mRNA in the absence of chemical substance (yeast gene YPR108W) | The level of expressed mRNA in the presence of chemical substance/ (in its absence), gene YPR165W (yeast gene YPR165W, ratio of DNA chip fluorescence intensity to that without chemical substance)
0.7: The level of expressed mRNA in the presence of chemical substance/ (ratio to absence), gene YNL073W (yeast gene YNL073W, mitochondria-located protein genes, 2 h culture with chemical) | The level of expressed mRNA in the presence of chemical substance/ (in its absence), gene YNL192W (yeast gene YNL192W, ratio of DNA chip fluorescence intensity to that without chemical substance) | The level of expressed mRNA in the presence of chemical substance/ (ratio to absence of chemical substance) (yeast gene YOR009W) | The level of expressed mRNA in the presence of chemical substance/The level of expressed mRNA in the absence of chemical substance (yeast gene YOR132W)
2.1: The level of expressed mRNA in the presence of chemical substance/The level of expressed mRNA in the absence of chemical substance (yeast gene YNR069C) | The level of expressed mRNA in the presence of chemical substance/The level of expressed mRNA in the absence of chemical substance (yeast gene YOR185C)
0.6: The level of expressed mRNA in the presence of chemical substance/The level of expressed mRNA in the absence of chemical substance (yeast gene YOR355W) | The level of expressed mRNA in the presence of chemical substance/The level of expressed mRNA in the absence of chemical substance (yeast gene YOR383C)
